A short description of assay [1]: Anticancer activity against human SK-MEL-128 cells assessed as cell growth inhibition incubated for 48 hrs by MTT assay. The class given is functional, cell-based. To be noted: SK-MEL-128, 48 h.
Assay [2] concerns A549. Put plainly: Anticancer activity against human A549 cells assessed as cell growth inhibition incubated for 48 hrs by MTT assay. The class given is functional, cell-based. To be noted: A549, 48 h.
For assay [3], the system named is DU-145. Put plainly: Anticancer activity against human DU-145 cells assessed as cell growth inhibition incubated for 48 hrs by MTT assay. The class given is functional, cell-based. To be noted: DU-145, 48 h.
Assay [4] concerns BT-20. Put plainly: Anticancer activity against human BT-20 cells assessed as cell growth inhibition incubated for 48 hrs by MTT assay. The class given is functional, cell-based. As to conditions: BT-20, 48 h.
The subject of assay [5] is Candida albicans. Put plainly: Antifungal activity against Candida albicans Y0109 assessed as fungal growth inhibition. The class given is functional.
The subject of assay [6] is Mycobacterium tuberculosis. Put plainly: Antimycobacterial activity against Mycobacterium tuberculosis H37Rv measured after 8 to 9 days. To be noted: time 8-9 day. The class given is functional.
A short description of assay [7]: Inhibition of Mycobacterium tuberculosis shikimate dehydrogenase.
Assay [8] has as its system MDA-MB-231. Put plainly: Antiproliferative activity against human MDA-MB-231 cells assessed as cell growth inhibition by MTT assay. The class given is functional, cell-based.
For assay [9], the system named is Staphylococcus aureus. Put plainly: Antibacterial activity against Staphylococcus aureus assessed as bacterial growth inhibition incubated for 16 hrs. The class given is functional.
In assay [10] the test system is Mycobacterium tuberculosis. Put plainly: Antimycobacterial activity against Mycobacterium tuberculosis H37Rv. The class given is functional.
Assay [11] deals with Leishmania major. Put plainly: Antileishmanial activity against promastigotes stage of Leishmania major. The class given is functional, organism-based.
The subject of assay [12] is HT-29. Put plainly: Antiproliferative activity against human HT-29 cells assessed as cell growth inhibition incubated for 48 hrs by MTT assay. The class given is functional, cell-based. To be noted: HT-29, 48 h.
The test system of assay [13] is RS4-11. Put plainly: Antiproliferative activity against human RS4-11 cells assessed as cell growth inhibition incubated for 48 hrs by MTT assay. As to conditions: RS4-11, 48 h. The class given is functional, cell-based.
Assay [14] concerns Jurkat. Put plainly: Antiproliferative activity against human jurkat cells assessed as cell growth inhibition incubated for 48 hrs by MTT assay. The class given is functional, cell-based.
The test system of assay [15] is HeLa. Put plainly: Antiproliferative activity against human HeLa cells assessed as cell growth inhibition incubated for 48 hrs by MTT assay. The class given is functional, cell-based.
Assay [16] concerns MCF7. Put plainly: Antiproliferative activity against human MCF7 cells assessed as cell growth inhibition incubated for 48 hrs by MTT assay. As to conditions: MCF7, 48 h. The class given is functional, cell-based.
The subject of assay [17] is Plasmodium falciparum. Put plainly: Antimalarial activity against Plasmodium falciparum. The class given is functional, organism-based.
The test system of assay [18] is Mycobacterium tuberculosis. Put plainly: Antimycobacterial activity against Mycobacterium tuberculosis H37Rv measured after 21 days. The class given is functional. As to conditions: 504 h, time 21 day.
The subject of assay [19] is Mycobacterium tuberculosis. Put plainly: Potency index, ratio of test compound MIC to Pyrazinamide MIC for antimycobacterial activity against Mycobacterium tuberculosis H37Rv. The class given is functional.
In assay [20] the test system is Mycobacterium tuberculosis. Put plainly: Antimycobacterial activity against Mycobacterium tuberculosis H37Rv measured […] by MABA assay. The class given is functional.
The subject of assay [21] is Xanthomonas oryzae pv. oryzae. Put plainly: Antibacterial activity against Xanthomonas oryzae pv. oryzae assessed as bacterial growth inhibition. The class given is functional, organism-based.
[22] abbreviates: Plasmodium falciparum, read-out: IC50.

The values below come from ChEMBL document CHEMBL5244255, “An insight on medicinal attributes of 1,2,4-triazoles” (Eur J Med Chem, 2020).

Converted amounts (≈) assume the structure as drawn. Bounds are passed on as bounds.

Take `CCN(CC)c1ccc2cc(C(=O)NNC(=O)Cn3nc(C)n(N)c3=O)c(=O)oc2c1`: the half-maximal inhibitory concentration (IC50) in assay [1], in assay [2], in assay [3] and in assay [4] was 3.1 µg/mL (≈ 7.22 µM) in each case.

For the compound `Nn1c(Cc2ccc(Cl)c(Cl)c2)nn(CC(=O)NNC(=O)c2cc3cc(Cl)ccc3oc2=O)c1=O`, the IC50 in assay [1], in assay [2], in assay [3] and in assay [4] was 3.1 µg/mL (≈ 5.76 µM) throughout.

For `C=C(CCCC)C(=O)OC1CCN(CC(O)(Cn2cncn2)c2ccc(F)cc2F)CC1` (configuration not stated), the MIC80 in assay [5] was 9 nM (≈ 4.04 ng/mL).

For the compound `CCCC(=O)OC1CCN(CC(O)(Cn2cncn2)c2ccc(F)cc2F)CC1` (configuration not stated), the MIC80 in [5] came to 9 nM (≈ 3.68 ng/mL).

Compound `Brc1ccc(OCc2nn3c(-c4ccc(Br)cc4)nnc3s2)cc1` returned a minimum inhibitory concentration (MIC) in [6] of 14.4 µg/mL (≈ 30.9 µM). Moreover, the concentration for half-maximal inhibition (IC50) in assay [7] is 14.42 µg/mL (≈ 30.9 µM).

In [6], `O=[N+]([O-])c1ccc(C2=Nn3c(nnc3-c3ccc(Br)cc3)CC2)cc1` yielded an MIC of 0.25 µg/mL (≈ 0.628 µM). In assay [7], the IC50 came out at 86.39 µg/mL (≈ 217 µM).

With `Cc1ccc(-n2nc(C)n(-n3c(-c4cc5ccccc5oc4=O)cs/c3=N\c3ccccc3)c2=O)cc1`, the IC50 in assay [8] came out at 0.16 µg/mL (≈ 0.315 µM).

In the case of `CC(C)(C)C(=O)OC1CCN(CC(O)(Cn2cncn2)c2ccc(F)cc2F)CC1` (configuration not stated), in [5], the MIC80 was 9 nM (≈ 3.8 ng/mL).

Regarding `Cc1ccc(C(=O)NCc2nnc(S)n2/N=C/c2ccc([N+](=O)[O-])cc2)cc1`, the minimal inhibitory concentration (MIC) in assay [9] came to 3.12 µg/mL (≈ 7.88 µM).

Turning to `O=C(CCl)OC1CCN(CC(O)(Cn2cncn2)c2ccc(F)cc2F)CC1` (configuration not stated), the MIC80 in assay [5] came out at 9 nM (≈ 3.73 ng/mL).

Take `OC1CCC(C(O)c2nnc(-c3ccncc3)[nH]2)CC1O` (configuration not stated): in [10], the minimum inhibitory concentration (MIC) came out at 0.59 µg/mL (≈ 2.03 µM).

As to `CCCCCCC(=O)OC1CCN(CC(O)(Cn2cncn2)c2ccc(F)cc2F)CC1` (configuration not stated), the MIC80 in assay [5] was found to be 9 nM (≈ 4.05 ng/mL).

As to `COc1ccc(/C=N/n2c(S)nnc2CNC(=O)c2ccccc2)cc1`, the minimal inhibitory concentration (MIC) in assay [9] is 3.12 µg/mL (≈ 8.5 µM).

In turn, `CCCCCCCCCCCCCCCCOP(=O)([O-])OCC[N+](C)(C)C` [MILTEFOSINE] gave a half-inhibitory concentration (IC50) in assay [11] of 3.19 µg/mL (≈ 7.83 µM).

With `OC1(c2nnc(-c3ccncc3)[nH]2)CCCCC1`, the minimal inhibitory concentration (MIC) in assay [10] is 0.59 µg/mL (≈ 2.42 µM).

`Clc1ccc(-c2nnc3sc(COc4ccc(Br)cc4)nn23)cc1`: the minimum inhibitory concentration (MIC) in assay [6] is 6.82 µg/mL (≈ 16.2 µM). This compound had a concentration for half-maximal inhibition (IC50) in assay [7] of 6.82 µg/mL (≈ 16.2 µM).

As for `COc1cc(C(=O)n2nc(-c3ccc(Br)cc3)nc2N)cc(OC)c1OC`, the IC50 in assay [12], in [13], in assay [14], in assay [15] and in assay [16] was under 1000 nM throughout.

Consider `CC(=O)OC1CCN(CC(O)(Cn2cncn2)c2ccc(F)cc2F)CC1` (configuration not stated), for which the MIC80 in assay [5] is 9 nM (≈ 3.42 ng/mL).

Compound `OC1(c2nnc(-c3ccncc3)[nH]2)CCCC1` had a minimal inhibitory concentration (MIC) in [10] of 0.59 µg/mL (≈ 2.56 µM).

Consider `Cc1nn(-c2ccccc2)c(-n2cncn2)c1-c1cc(-c2ccc(O)cc2)cc2nc3ccccc3n12`, for which the IC50 turned out to be 0.041 µg/mL (≈ 0.0848 µM) in assay [17] and 0.054 µg/mL (≈ 0.112 µM) in [17] (setting [22]).

Compound `CC(C)=CCC/C(C)=C/COc1ccc(/C=C/c2nnc3c4ccccc4cnn23)cc1` yielded an MIC in assay [18] of 0.5 µg/mL (≈ 1.18 µM).

Consider `Cc1nn(-c2ccccc2)c(-n2cncn2)c1-c1cc(-c2ccc(F)cc2)cc2nc3ccccc3n12`, for which the IC50 in assay [17] and in assay [17] (setting [22]) was 0.041 µg/mL (≈ 0.0844 µM) each time.

Consider `COc1ccc(-n2ncn(Cc3cn(Cc4cc(=O)oc5ccc(C)cc45)nn3)c2=O)cc1`, for which the Ratio in assay [19] is recorded as 2. This compound also registered a minimal inhibitory concentration (MIC) in [20] of 1.6 µg/mL (≈ 3.6 µM).

Consider `C#Cc1nnc2c3ccccc3cnn12`, for which inhibition of growth in assay [18] (MIC) required 0.5 µg/mL (≈ 2.57 µM).

Take `CCC(=O)OC1CCN(CC(O)(Cn2cncn2)c2ccc(F)cc2F)CC1` (configuration not stated): the MIC80 in assay [5] was determined as 9 nM (≈ 3.55 ng/mL).

On to `CCCCCCCCCC(=O)OC1CCN(CC(O)(Cn2cncn2)c2ccc(F)cc2F)CC1` (configuration not stated), for which the MIC80 in [5] came out at 9 nM (≈ 4.43 ng/mL).

As to `COc1ccc(-n2ncn(Cc3cn(Cc4cc(=O)oc5ccc6ccccc6c45)nn3)c2=O)cc1`, the Ratio in [19] is 2. Further, the MIC in assay [20] is 1.6 µg/mL (≈ 3.33 µM).

For `Cc1nn(-c2ccccc2)c(-n2cncn2)c1-c1cc(-c2ccccc2)cc2nc3ccccc3n12`, the IC50 in assay [17] (setting [22]) turned out to be 0.041 µg/mL (≈ 0.0877 µM).

Turning to `Cc1nn(-c2ccccc2)c(=O)n1-n1c(-c2cc3ccccc3oc2=O)cs/c1=N\c1ccc(Cl)cc1`, in assay [8], the IC50 is 0.16 µg/mL (≈ 0.303 µM).

As to `O=C(CSc1nnc(C2CCN(c3ncnc4ccccc34)CC2)n1-c1ccccc1)Nc1cccc(F)c1`, in [21], the concentration giving a half-maximal response (EC50) was found to be 34.5 µg/mL (≈ 63.9 µM).
